Activity calls are given as the source filed them. The rule behind the calls is not given here.
Legend:
[1] = biological target: T1, Transketolase (Homo sapiens, UniProt P29401); experiment: Inhibition of transketolase by TPPK/apo-TK coupled assay
T1 sequence (P29401 whole entry): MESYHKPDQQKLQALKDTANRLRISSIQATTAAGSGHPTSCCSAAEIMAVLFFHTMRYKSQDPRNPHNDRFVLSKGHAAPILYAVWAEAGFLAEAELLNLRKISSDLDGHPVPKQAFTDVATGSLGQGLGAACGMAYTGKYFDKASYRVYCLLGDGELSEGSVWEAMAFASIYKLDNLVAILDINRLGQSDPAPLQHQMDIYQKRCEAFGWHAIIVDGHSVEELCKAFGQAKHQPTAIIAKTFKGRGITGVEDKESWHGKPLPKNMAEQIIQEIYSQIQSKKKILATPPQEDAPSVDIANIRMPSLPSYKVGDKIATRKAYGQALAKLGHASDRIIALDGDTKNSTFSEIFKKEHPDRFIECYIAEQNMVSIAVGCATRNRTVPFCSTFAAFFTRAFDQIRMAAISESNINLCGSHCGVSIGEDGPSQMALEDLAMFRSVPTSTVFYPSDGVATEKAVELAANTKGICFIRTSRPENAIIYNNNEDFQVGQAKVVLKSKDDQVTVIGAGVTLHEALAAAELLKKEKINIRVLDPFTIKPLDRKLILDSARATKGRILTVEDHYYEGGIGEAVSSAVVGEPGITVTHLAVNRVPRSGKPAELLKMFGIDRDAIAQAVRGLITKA

[2] = biological target: T1, Transketolase; experiment: Inhibition of human transketolase in HCT116 cells; format: cell-based, HCT-116
[3] = biological target: T1, Transketolase; experiment: Binding affinity to apo-transketolase
[4] = system: Mus musculus; experiment: Inhibition of transketolase activity in human HCT116 cells xenografted mouse at 100 mg/kg, iv bid for 2 weeks; format: functional, organism-based; parameters: dose 100 mg/kg; settings: HCT-116
[5] = system: Mus musculus; experiment: Inhibition of alphaKGDH activity in human HCT116 cells xenografted mouse at 100 mg/kg, iv bid for 2 weeks; format: functional, organism-based; parameters: dose 100 mg/kg; settings: HCT-116
[6] = system: Mus musculus; experiment: Inhibition of G6PD activity in human HCT116 cells xenografted mouse at 100 mg/kg, iv bid for 2 weeks; format: functional, organism-based; parameters: dose 100 mg/kg; settings: HCT-116
[7] = system: HCT-116; experiment: Antitumor activity against human HCT116 cells xenografted mouse assessed as reduction in tumor size at 100 mg/kg, iv bid for 2 weeks; format: functional, organism-based; parameters: dose 100 mg/kg

Row | Kd [1] | EC50 [2] | SMILES | further results
1 | 28 nM | 50 nM | Cc1ccc(C[n+]2csc([C@H](O)CO)c2C)c(N)n1 | 
2 | 1460 nM |  | Cc1c(CCO)sc[n+]1Cc1c(C(F)(F)F)cc(C(F)(F)F)nc1N | 
3 | 10 nM | 8.7 nM | CCc1ccc(C[n+]2csc(CCO)c2C)c(N)n1 | 
4 |  | 2200 nM | Cc1ccc(C[n+]2csc(CCC#N)c2C)c(N)n1 | 
5 | 57 nM | 360 nM | Cc1c(CCO)sc[n+]1Cc1ccc(C#N)nc1N | 
6 |  |  | Cc1ccc(C[n+]2csc(CCOP(=O)(O)OP(=O)(O)O)c2C)c(N)n1 | Kd [3]: 22 nM
7 | 40 nM | 950 nM | CCc1c(CCO)sc[n+]1Cc1ccc(C)nc1N | 
8 | 64 nM | 24000 nM | Cc1c(CCO)sc[n+]1Cc1cnccc1N | 
9 | 46 nM |  | Cc1c(CCO)sc[n+]1Cc1ccc(Cl)nc1N | 
10 | 25 nM | 570 nM | Cc1ccc(C[n+]2csc(CCO)c2CO)c(N)n1 | 
11 |  | 1300 nM | Cc1ccc(C[n+]2csc(CCCO)c2C)c(N)n1 | 
12 | 75 nM | 21 nM | CCc1sc(CCO)c(C)[n+]1Cc1ccc(C)nc1N | 
13 | 33 nM | 26 nM | Cc1ccc(C[n+]2csc(CCO)c2C)c(N)n1 | Activity [4]: Active; Activity [5]: Active; Activity [6]: inactive; Activity [7]: inactive
14 | 7 nM | 1600 nM | Cc1c(CCO)sc[n+]1Cc1ccc(N)nc1 | 
15 | 140 nM | 3100 nM | Cc1c(CCO)sc[n+]1Cc1ccc(C(=O)c2ccccc2C(=O)O)nc1 | 
16 | 109 nM | 1000 nM | Cc1c(CCO)sc[n+]1Cc1cc(I)cnc1N | 

Row | Kd [1] | EC50 [2] | SMILES | further results
17 |  | 4.7 nM | CC(=O)OCCc1sc[n+](Cc2ccc(C)nc2N)c1C | 
18 | 25 nM | 56 nM | Cc1ccc(C[n+]2c(C)sc(CCO)c2C)c(N)n1 | 
19 | 220 nM | 38000 nM | Cc1cncc(C[n+]2csc(CCO)c2C)c1 | 
20 | 104 nM | 160 nM | Cc1c(CCO)sc[n+]1Cc1ccc(C(F)(F)F)nc1N | 
21 |  | 2300 nM | COC(=O)CCc1sc[n+](Cc2ccc(C)nc2N)c1C | 
22 | 36 nM | 490 nM | Cc1ccc(C[n+]2cc(CCO)sc2C)c(N)n1 | 
23 | 27 nM | 2000 nM | Cc1ccc(C[n+]2csc([C@@H](O)CO)c2C)c(N)n1 | 
24 | 310 nM | 470 nM | Cc1c(CCO)sc[n+]1Cc1ccc(C(F)(F)F)nc1 | 
25 |  | 25000 nM | Cc1ccc(C[n+]2c(-c3ccc4c(c3)OCO4)sc(CCO)c2C)c(N)n1 | 
26 | 53 nM | 300 nM | Cc1ccc(C[n+]2csc(C(O)CO)c2C)c(N)n1 (configuration not stated) | 
27 | 23 nM | 800 nM | CC(=O)Nc1ccc(C[n+]2csc(CCO)c2C)c(N)n1 | 
28 |  | 840 nM | Cc1ccc(C[n+]2c(Cc3cccnc3)sc(CCO)c2C)c(N)n1 | 
29 | 29 nM |  | Cc1ccc(C[n+]2csc(CCO)c2)c(N)n1 | 
30 | 36 nM |  | Cc1c(CCO)sc[n+]1Cc1cccnc1N | 
31 | 120 nM | 30 nM | Cc1ccc(C[n+]2c(C(C)O)sc(CCO)c2C)c(N)n1 (configuration not stated) | 
32 | 34 nM | 8.3 nM | Cc1cc(C)c(C[n+]2csc(CCO)c2C)c(N)n1 | 

Reference: ChEMBL document CHEMBL1143137, “Synthesis, in vitro and in vivo activity of thiamine antagonist transketolase inhibitors” (Bioorg Med Chem Lett, 2008)
